The values that follow come from patent publication US20250197375A1, “PYRIMIDINES AND METHODS OF THEIR USE” (Kineta, Inc., priority 2021, published 2025).

Where two headings read alike, the source gives them in different places.

Experiment [1] has as its system PIKFYVE TDP-43 yeast strain. Kind of experiment: Propidium iodide viability assay in PIKFYVE TDP-43 yeast strain. The note with it: for IC50: Saccharomyces cerevisiae, PIKFYVE TDP-43 yeast strain, reduction in PI-positive cells, 15 to 0.11 μM, 24 hours; for PIKfyve TDP-43 (active/inactive): PIKFYVE TDP-43 yeast model. It counts as cell-based. The text has this: Generation of TDP-43 yeast model expressing human PIKfyve. Human PIKFYVE (“entry clone”) was cloned into pAG416GPDccdB (“destination vector”) according to standard Gateway cloning protocols (Invitrogen, Life Technologies). […] Lithium acetate/polyethylene glycol-based transformation was used to introduce the above PIKFYVE plasmid into a BY4741 yeast strain auxotrophic for the ura3 gene and deleted for two transcription factors that regulate the xenobiotic efflux pumps, a major efflux pump, and FAB1, the yeast ortholog of PIKFYVE (MATa, snq2::KILeu2; pdr3::Klura3; pdr1::NATMX; fab1::G418^R, his3; leu2; ura3; met15; LYS2+) (FIG. 2). Transformed yeast were plated on solid agar plates with complete synthetic media lacking uracil (CSM-ura) and containing 2% glucose. Individual colonies harboring the control or PIKFYVE TDP-43 plasmids were recovered. A plasmid containing wild-type TDP-43 under the transcriptional control of the GAL1 promoter and containing the hygromycin-resistance gene as a selectable marker was transformed into the fab1::G418^R pAG416GPD-PIKFYVE yeast strain (FIG. 1). Transformed yeast were plated on CSM-ura containing 2% glucose and 200 µg/mL G418 after overnight recovery in media lacking antibiotic. Multiple independent isolates were further evaluated for cytotoxicity and TDP-43 expression levels.
Viability Assay. A control yeast strain with the wild-type yeast FAB1 gene and TDP-43 (“FAB1 TDP-43”, carries empty pAG416 plasmid), and the “PIKFYVE TDP-43” yeast strain, were assessed for toxicity using a propidium iodide viability assay. Both yeast strains were transferred from solid CSM-ura/2% glucose agar plates into 3 mL of liquid CSM-ura/2% glucose media for 6-8 hours at 30° C. with aeration. […] Log-phase overnight cultures were diluted to OD600 of 0.005 in CSM-ura containing either 2% raffinose or galactose and 150 µL dispensed into each well of a flat bottom 96-well plates. […] Wells containing DMSO alone were also evaluated as controls for compound effects. […] Cultures were immediately mixed to ensure compound distribution and covered plates incubated at 30° C. for 24 hours in a stationary, humified incubator.
(§1) Upon the completion of incubation, cultures were assayed for viability using propidium iodide (PI) to stain for dead/dying cells. A working solution of PI was made where, for each plate, 1 µL of 10 mM PI was added to 10 mL of CSM-ura (raffinose or galactose). The final PI solution (50 µL/well) was dispensed into each well of a new round bottom 96-well plate. The overnight 96-well assay plate was then mixed with a multichannel pipet and 50 µL transferred to the PI-containing plate. This plate was then incubated for 30 minutes at 30° C. in the dark. A benchtop flow cytometer (Miltenyi MACSquant) was then used to assess red fluorescence (B2 channel), forward scatter, and side scatter (with following settings: gentle mix, high flow rate, fast measurement, 10,000 events). Intensity histograms were then gated for “P-positive” or “PI-negative” using the raffinose and galactose cultures treated with DMSO as controls. The DMSO controls for raffinose or galactose-containing cultures were used to determine the window of increased cell death and this difference set to 100. All compounds were similarity gated and then compared to this maximal window to establish the percent reduction in PI-positive cells.

Experiment [2] deals with FAB1 TDP-43 yeast strain. Kind of experiment: Propidium iodide viability assay in FAB1 TDP-43 control yeast strain. The note with it: for FAB1 TDP-43 (active/inactive): FAB1 TDP-43 yeast model. It counts as cell-based. As to the method:
Viability Assay. A control yeast strain with the wild-type yeast FAB1 gene and TDP-43 (“FAB1 TDP-43”, carries empty pAG416 plasmid), and the “PIKFYVE TDP-43” yeast strain, were assessed for toxicity using a propidium iodide viability assay. Both yeast strains were transferred from solid CSM-ura/2% glucose agar plates into 3 mL of liquid CSM-ura/2% glucose media for 6-8 hours at 30° C. with aeration. Yeast cultures were then diluted to an optical density at 600 nm wavelength (OD600) of 0.005 in 3 mL of CSM-ura/2% raffinose and grown overnight at 30° C. with aeration to an OD600 of 0.3-0.8. Log-phase overnight cultures were diluted to OD600 of 0.005 in CSM-ura containing either 2% raffinose or galactose and 150 µL dispensed into each well of a flat bottom 96-well plates. Compounds formulated in 100% dimethyl sulfoxide (DMSO) were serially diluted in DMSO and 1.5 µL diluted compound transferred to the 96-well plates using a multichannel pipet. Wells containing DMSO alone were also evaluated as controls for compound effects. Tested concentrations ranged from 15 µM to 0.11 µM. Cultures were immediately mixed to ensure compound distribution and covered plates incubated at 30° C. for 24 hours in a stationary, humified incubator.
as §1

Experiment [3] deals with full-length human PIKFYVE (Homo sapiens (Human), UniProt Q9Y2I7, L932S/Q1183K/Q995L/S1033A/S696N/T998S). Kind of experiment: PIKfyve Biochemical Assay (ADP-Glo Kinase assay, GST-PIKFYVE). The protocol:
PIKfyve Biochemical Assay. The biochemical PIKFyve inhibition assays were run by Cama Biosciences according to proprietary methodology based on the Promega ADP-Glo™ Kinase assay. […] GST-PIKFYVE was purified by using glutathione sepharose chromatography and used in an ADP-Glo™ Kinase assay (Promega). Reactions were set up by adding the test compound solution, substrate solution, ATP solution and kinase solution, each at 4× final concentrations. Reactions were prepared with assay buffer (50 mM MOPS, 1 mM DTT, pH7.2), mixed, and incubated in black 384 well polystyrene plates for 1 hour at room temperature. ADP-Glo™ reagent was then added for 40 minutes, followed by kinase detection reagent for an additional 40 minutes. The kinase activity was evaluated by detecting relative light units on a luminescence plate reader. Samples were run in duplicate from 10 μM to 3 nM. […] IC50 values were calculated from concentration versus percent inhibition curves by fitting to a four-parameter logistic curve.
The biochemical PIKFyve inhibition assays were run by Cama Biosciences according to proprietary methodology based on the Promega ADP-Glo™ Kinase assay. […] GST-PIKFYVE was purified by using glutathione sepharose chromatography and used in an ADP-Glo™ Kinase assay (Promega).
Reactions were set up by adding the test compound solution, substrate solution, ATP solution and kinase solution, each at 4× final concentrations. Reactions were prepared with assay buffer (50 mM MOPS, 1 mM DTT, pH7.2), mixed, and incubated in black 384 well polystyrene plates for 1 hour at room temperature. ADP-Glo™ reagent was then added for 40 minutes, followed by kinase detection reagent for an additional 40 minutes. The kinase activity was evaluated by detecting relative light units on a luminescence plate reader. Samples were run in duplicate from 10 uM to 3 nM. […] IC50 values were calculated from concentration vs % inhibition curves by fitting to a four-parameter logistic curve.

The target of experiment [4] is PIKfyve (Homo sapiens (Human), UniProt Q9Y2I7). Kind of experiment: PIKfyve EEA1 Assay (endosomal vesicle enlargement, high content imaging in U2OS cells). It is filed as cell-based. Particulars: 3 hours of treatment, activity relative to maximal APY0201 activity. The procedure, abridged:
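U2OS cells exposed to compound for 3 h in DMEM with 10% FBS, then fixed, EEA1-immunostained and imaged at 40×. Endosome enlargement scored by a classifier on EEA1 spot size, intensity and texture, trained on APY0201-treated cells. Percent activity set DMSO-subtracted versus maximal APY0201, IC50 by logistic regression.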

Setting [5] is: ADP-Glo, 1 hour at room temperature, 10 μM to 3 nM in duplicate, read-out: PIKfyve Biochemistry IC50 (μM)*.

Chain of full-length human PIKFYVE (Q9Y2I7 whole entry S696N/L932S/Q995L/T998S/S1033A/Q1183K): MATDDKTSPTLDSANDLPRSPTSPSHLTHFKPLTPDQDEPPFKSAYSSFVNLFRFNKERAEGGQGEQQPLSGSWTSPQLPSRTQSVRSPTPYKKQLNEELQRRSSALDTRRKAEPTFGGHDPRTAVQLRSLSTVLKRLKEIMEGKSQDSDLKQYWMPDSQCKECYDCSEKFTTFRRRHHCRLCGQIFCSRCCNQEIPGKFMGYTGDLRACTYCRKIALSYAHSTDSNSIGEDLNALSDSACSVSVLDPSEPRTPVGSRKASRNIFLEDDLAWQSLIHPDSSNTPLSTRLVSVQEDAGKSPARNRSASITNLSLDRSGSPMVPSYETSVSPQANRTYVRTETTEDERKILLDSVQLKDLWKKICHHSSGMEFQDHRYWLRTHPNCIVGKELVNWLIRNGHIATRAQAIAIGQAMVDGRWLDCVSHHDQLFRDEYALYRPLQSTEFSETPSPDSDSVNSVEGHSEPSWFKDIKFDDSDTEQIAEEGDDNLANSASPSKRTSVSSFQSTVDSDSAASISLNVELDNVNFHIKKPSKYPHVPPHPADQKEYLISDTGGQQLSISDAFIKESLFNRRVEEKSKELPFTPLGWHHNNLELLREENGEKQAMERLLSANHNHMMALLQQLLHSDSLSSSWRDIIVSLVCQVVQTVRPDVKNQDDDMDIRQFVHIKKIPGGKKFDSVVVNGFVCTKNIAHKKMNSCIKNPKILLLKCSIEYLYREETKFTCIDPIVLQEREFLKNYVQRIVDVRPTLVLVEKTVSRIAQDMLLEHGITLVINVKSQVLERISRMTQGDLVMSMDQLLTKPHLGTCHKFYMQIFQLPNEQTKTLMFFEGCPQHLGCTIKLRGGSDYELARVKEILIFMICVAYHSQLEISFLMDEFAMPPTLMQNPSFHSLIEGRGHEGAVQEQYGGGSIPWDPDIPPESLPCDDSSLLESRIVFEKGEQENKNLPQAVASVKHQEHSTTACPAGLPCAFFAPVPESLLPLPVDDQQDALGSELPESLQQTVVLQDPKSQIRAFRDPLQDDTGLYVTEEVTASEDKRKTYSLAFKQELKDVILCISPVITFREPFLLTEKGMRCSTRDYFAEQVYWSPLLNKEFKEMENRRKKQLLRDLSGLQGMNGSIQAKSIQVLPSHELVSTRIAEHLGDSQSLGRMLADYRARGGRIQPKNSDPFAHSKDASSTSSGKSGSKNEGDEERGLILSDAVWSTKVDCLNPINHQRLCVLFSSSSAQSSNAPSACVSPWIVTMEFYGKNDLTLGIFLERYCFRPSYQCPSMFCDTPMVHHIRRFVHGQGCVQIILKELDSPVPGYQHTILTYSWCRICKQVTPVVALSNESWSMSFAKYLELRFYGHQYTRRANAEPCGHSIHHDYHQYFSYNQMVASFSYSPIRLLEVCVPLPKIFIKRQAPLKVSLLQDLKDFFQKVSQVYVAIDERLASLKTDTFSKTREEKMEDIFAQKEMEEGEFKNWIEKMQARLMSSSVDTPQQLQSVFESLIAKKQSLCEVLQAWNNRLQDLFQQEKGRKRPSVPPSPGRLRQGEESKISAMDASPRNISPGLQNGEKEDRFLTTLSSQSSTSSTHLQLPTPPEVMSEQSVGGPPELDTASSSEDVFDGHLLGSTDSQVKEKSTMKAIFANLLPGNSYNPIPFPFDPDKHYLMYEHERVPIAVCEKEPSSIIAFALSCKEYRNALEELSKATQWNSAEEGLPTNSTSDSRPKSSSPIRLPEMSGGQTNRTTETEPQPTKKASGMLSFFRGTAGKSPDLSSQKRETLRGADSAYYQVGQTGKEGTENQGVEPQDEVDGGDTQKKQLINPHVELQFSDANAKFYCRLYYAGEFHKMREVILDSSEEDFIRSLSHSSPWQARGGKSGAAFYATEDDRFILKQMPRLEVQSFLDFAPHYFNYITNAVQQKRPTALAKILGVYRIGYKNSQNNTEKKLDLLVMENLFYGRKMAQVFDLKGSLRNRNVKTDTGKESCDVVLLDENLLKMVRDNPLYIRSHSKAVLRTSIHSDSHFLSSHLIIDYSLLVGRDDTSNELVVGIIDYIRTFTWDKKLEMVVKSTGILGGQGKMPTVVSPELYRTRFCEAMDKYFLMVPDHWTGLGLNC
Chain of PIKfyve (Q9Y2I7 whole entry): as the sequence (Q9Y2I7 whole entry S696N/L932S/Q995L/T998S/S1033A/Q1183K) above, with N696S, S932L, L995Q, S998T, A1033S, K1183Q counted along it

With `Fc1cccc(-c2ccnn2-c2nc(N3CCOCC3)c3ncccc3n2)c1`, in experiment [1], the IC50 (commonly the midpoint of a concentration-inhibition curve) was 5.75 µM.

Consider `Cc1cccc(/C=N/Nc2nc(N3CCOCC3)c3ncccc3n2)c1`, for which the IC50 in experiment [1] worked out at 8.21 µM. With `Cc1cccc(/C=N/Nc2cc(N3CCOCC3)n3nc(-c4ccncc4)cc3n2)c1` [APY0201], the “population of propidium iodide-positive dead cells” value in experiment [1] (PIKFYVE TDP-43 model, 0.23 μM, FIG. 6) is on record as “reduced the population of propidium iodide-positive dead cells”. Further, the viability result in experiment [1] (PIKFYVE TDP-43 model, concentrations ranging from 0.5 mM to less than 100 nM) is listed as “increased viability”. Moreover, the “viable cells (propidium iodide-negative population)” value in experiment [2] (FAB1 TDP-43, across a range of compound concentrations (only 0.23 μM is shown), FIG. 5) is “no increase in viable cells”.

With `Cn1c(-c2ccncc2)nc2c(N3CCOCC3)ncnc21`, in experiment [1], the “PIKfyve TDP-43 (active/inactive)” value is listed as “Inactive”. Besides, the “FAB1 TDP-43 (active/inactive)” value in experiment [2] is “Inactive”. Turning to `Cc1cccc(/C=N/Nc2cc(N3CC4CC3CO4)n3nc(-c4ccncc4)cc3n2)c1` (centres unmarked), in experiment [1], the “PIKfyve TDP-43 (active/inactive)” value is “Active”. Further, the “FAB1 TDP-43 (active/inactive)” value in experiment [2] is “Inactive”. Regarding `Cc1cccc(/C=N/Nc2nc(N3CCOCC3)c3nc(-c4ccncc4)n(C)c3n2)c1` [drawing 206], 4.72 µM corresponded to half-maximal inhibition in experiment [1] (IC50).

As to `c1ccc(-c2ccnc(-c3cc(N4CCOCC4)nc(OCc4ccncc4)n3)n2)cc1`, inhibition in experiment [1] was half-maximal at 1.45 µM (IC50). Take `Cc1cccc(/C=N/Nc2nc(N3CCOCC3)c3nc(-c4ccncc4)n(C)c3n2)c1` [drawing 192]: in experiment [1], the “PIKfyve TDP-43 (active/inactive)” value was “Active”. In experiment [2], the “FAB1 TDP-43 (active/inactive)” value was “Inactive”. In the same order, the values of `CN(C)c1cc(N2CCOCC2)n2nc(-c3ccncc3)cc2n1` are “Inactive” and “Inactive”. Regarding `c1ccc(-c2cccc(-c3cc(N4CCOCC4)n4nc(-c5ccncc5)cc4n3)n2)cc1`, in experiment [1], the IC50 is 0.23 µM. Regarding `N#Cc1cc(N2CCOCC2)n2nc(-c3ccncc3)cc2n1`, the “PIKfyve TDP-43 (active/inactive)” value in experiment [1] is “Inactive”. The IC50 in experiment [3] (ADP-Glo with full-length PIKfyve, read-out: PIKfyve IC50) is above 10 µM. Also, the “FAB1 TDP-43 (active/inactive)” value in experiment [2] is “Inactive”. As to `Oc1cc(C2CCOCC2)nn1-c1cc(N2CCOCC2)n2nc(-c3ccncc3)cc2n1`, in experiment [1], inhibition was half-maximal at 9.11 µM (IC50). Turning to `Cc1cccc(/C=N/Nc2cc(N3CCOCC3)n3nc(-c4ccncc4)cc3n2)c1` [drawing 190], the “PIKfyve TDP-43 (active/inactive)” value in experiment [1] is “Active”. The “FAB1 TDP-43 (active/inactive)” value in experiment [2] is “Inactive”. `Oc1cc(-c2ccccc2)nn1-c1cc(N2CCOCC2)n2nc(-c3ccncc3)nc2n1` yielded an IC50 in experiment [1] of 0.693 µM.

The molecule `c1ccc(N2CCc3c(OCc4cccnc4)nc(N4CCOCC4)nc32)cc1` showed an IC50 in experiment [1] of 2.69 µM.

With `Cc1cccc(/C=N/Nc2cc(N3CCOCC3)nc(OCCc3ccc(CN)cc3)n2)c1`, the IC50 in experiment [1] amounted to 1.12 µM. On to `COc1c(Nc2ccncc2)nc(N2CCOCC2)nc1-c1cncc(-c2cccnn2)c1` [Compound 57], for which the IC50 in experiment [4] is 0.1 to 1 µM; in experiment [3] (setting [5]) it was below 0.01 µM. Consider `COc1c(Nc2ccncc2)nc(N2CCOCC2)nc1-c1cccc(-c2ncccn2)c1` [Compound 16, 5-methoxy-2-morpholino-N-(pyridin-4-yl)-6-(3-(pyrimidin-2-yl)phenyl)pyrimidin-4-amine], for which the IC50 in experiment [4] was 0.01 to 0.1 µM; in experiment [3] (setting [5]), below 0.01 µM.
